“Also recorded” adds a separate entry of the source.
Legend:
hERG = molecular target: T1, hERG (Homo sapiens, UniProt Q12809); experiment: hERG automated patch clamp assay in hERG-CHO cells; assay type: cell-based
T1 construct: expressed in transfected cells; host or cells: CHO
From the text: The potential cardiotoxicity of LPT99 was investigated in an assay using the hERG-CHO cells transfected with the automated patch clamp assay.

HEI-OC1 cells [1] = experiment: HEI-OC1 cell viability with CisPt; assay type: cell-based; settings: cellular model of CisPt-induced apoptosis
Experimental: To identify off-target activities of LPT99, its selectivity against a panel of receptors (44 G-protein-coupled receptors [GPCR] and 4 non-GPCR), 4 ion channels, and 3 transporters were analyzed. The cell line, HEI-OC1 (house ear institute organ of Corti 1), which expresses several characteristic markers of the organ of Corti sensory cells (Kalinec, et al., Audiol. Neurootol. 2003, 8(4), 177-89), was used to evaluate the efficacy of LPT99 in preventing apoptosis due to […]. Cells were pre-incubated with LPT99, followed by […] for 24 hours.
The effect of LPT99 on proliferation of non-apoptotic cells was studied. A549 cells were cultured in the presence of LPT99 for up to 6 days; the cell number was monitored by flow cytometry, and doubling time was calculated.

[2] = metabolic profile in hepatic fractions; assay type: in vitro ADME, human, dog, rabbit, rat, and mouse; settings: phase I biotransformation pathways
Experimental: The metabolic profile and stability of LPT99 was characterized in human, dog, rabbit, rat, and mouse microsomal and S9 fractions, and in human cytosolic fractions. LPT99 was extensively metabolized (>90% metabolized after 1 hour) in microsomal and S9 hepatic fractions in all tested species. Up to nine (9) metabolites were formed through phase I biotransformation pathways. The most abundant metabolites were identified as single hydroxylation, double hydroxylation, and demethylation plus double hydroxylation. […] In the rabbit S9 fraction, the quantity of detected metabolites was less than in the human S9 fraction.

caspase 3 = settings: cellular model of CisPt-induced apoptosis; IEB Symposium abstracts 2016; cited from earlier work
rats = experiment: GLP auditory safety study after single IT administration; assay type: in vivo, rat
Experimental: Gross observations were recorded, and selected organs were weighed.

[3] = plasma concentrations after IT administration of LPT99-CD; assay type: in vivo, rat
Experimental: In a study conducted in female Wistar rats, plasma concentrations of LPT99 were evaluated at 1 hour and 2, 4, 7, and 14 days after IT administration of a single 50 μL dose of 50, 100, or 200 μM LPT99 formulated in a 5% HPβ-cyclodextrin (“CD”) vehicle (LPT99-CD).

Sprague-Dawley rats = experiment: functional observation battery, IP injection; assay type: in vivo; settings: rat
Experimental: A functional observation battery was conducted with LPT99 administered via IP (intraperitoneal) injection in Sprague-Dawley rats. The study was preceded by a non-GLP maximum tolerated dose (MTD) toxicity study, via the same administration and test system, which determined the MTD of LTP99 to be 1000 mg/kg. LPT99 was suspended in vehicle [0.5% w/v methylcellulose and 0.1% v/v TWEEN®80 in Milli-Q water] and administered intraperitoneally to Sprague-Dawley rats as a single dose at the doses of 100 (low—G2/G2TK), 300 (mid—G3/G3TK), and 750 (high—G4/G4TK) mg/kg body weight. The rats in vehicle control groups (G1/G1TK) received the vehicle alone. The dose volume administered was at an equivolume of 10 mL/kg body weight for all groups.
LPT99 was suspended in vehicle [0.5% w/v methylcellulose and 0.1% v/v TWEEN® 80 in Milli-Q water] and administered intraperitoneally to Sprague-Dawley rats as a single dose at the doses of 100 (low—G2/G2TK), 300 (mid—G3/G3TK), and 750 (high—G4/G4TK) mg/kg body weight. The rats in vehicle control groups (G1/G1TK) received the vehicle alone. The dose volume administered was at an equivolume of 10 mL/kg body weight for all groups.

[4] = worst-case human plasma concentration estimate; settings: assumed maximum clinical dose 200 μg, human plasma volume 2400 mL
Experimental: These bioavailability values are similar to those described for other drugs formulated in POLOXAMER® gels and administered IT (Honeder, et al., Audiol. Neurootol. 2014, 19(3), 193-202; Wang, et al., Audiol. Neurootol. 2011, 16(4), 233-41; Yang, et al., Sci. Transl. Med. 2016, 8(356), 356ra120). Assuming a maximum clinical dose of 200 μg LPT99 and an average human plasma volume of 2400 mL (for an average 60-kg individual [typical blood plasma volume in males is ˜39 mL/kg of body weight, and in females ˜40 mL/kg]).

[5] = molecular target: apoptosome complex composed by recombinant Apaf-1, Cytc, deoxyadenosine triphosphate (dATP), and caspase 9 (Homo sapiens, UniProt O14727); experiment: inhibition of apoptosome complex formation, recombinant proteins; assay type: biochemical; settings: mean ± SD, read-out: apoptosome inhibition (measured as inhibition of caspase 3 activation)
Sequence of apoptosome complex composed by recombinant Apaf-1, Cytc, deoxyadenosine triphosphate (dATP), and caspase 9 (O14727 whole entry, one chain of several): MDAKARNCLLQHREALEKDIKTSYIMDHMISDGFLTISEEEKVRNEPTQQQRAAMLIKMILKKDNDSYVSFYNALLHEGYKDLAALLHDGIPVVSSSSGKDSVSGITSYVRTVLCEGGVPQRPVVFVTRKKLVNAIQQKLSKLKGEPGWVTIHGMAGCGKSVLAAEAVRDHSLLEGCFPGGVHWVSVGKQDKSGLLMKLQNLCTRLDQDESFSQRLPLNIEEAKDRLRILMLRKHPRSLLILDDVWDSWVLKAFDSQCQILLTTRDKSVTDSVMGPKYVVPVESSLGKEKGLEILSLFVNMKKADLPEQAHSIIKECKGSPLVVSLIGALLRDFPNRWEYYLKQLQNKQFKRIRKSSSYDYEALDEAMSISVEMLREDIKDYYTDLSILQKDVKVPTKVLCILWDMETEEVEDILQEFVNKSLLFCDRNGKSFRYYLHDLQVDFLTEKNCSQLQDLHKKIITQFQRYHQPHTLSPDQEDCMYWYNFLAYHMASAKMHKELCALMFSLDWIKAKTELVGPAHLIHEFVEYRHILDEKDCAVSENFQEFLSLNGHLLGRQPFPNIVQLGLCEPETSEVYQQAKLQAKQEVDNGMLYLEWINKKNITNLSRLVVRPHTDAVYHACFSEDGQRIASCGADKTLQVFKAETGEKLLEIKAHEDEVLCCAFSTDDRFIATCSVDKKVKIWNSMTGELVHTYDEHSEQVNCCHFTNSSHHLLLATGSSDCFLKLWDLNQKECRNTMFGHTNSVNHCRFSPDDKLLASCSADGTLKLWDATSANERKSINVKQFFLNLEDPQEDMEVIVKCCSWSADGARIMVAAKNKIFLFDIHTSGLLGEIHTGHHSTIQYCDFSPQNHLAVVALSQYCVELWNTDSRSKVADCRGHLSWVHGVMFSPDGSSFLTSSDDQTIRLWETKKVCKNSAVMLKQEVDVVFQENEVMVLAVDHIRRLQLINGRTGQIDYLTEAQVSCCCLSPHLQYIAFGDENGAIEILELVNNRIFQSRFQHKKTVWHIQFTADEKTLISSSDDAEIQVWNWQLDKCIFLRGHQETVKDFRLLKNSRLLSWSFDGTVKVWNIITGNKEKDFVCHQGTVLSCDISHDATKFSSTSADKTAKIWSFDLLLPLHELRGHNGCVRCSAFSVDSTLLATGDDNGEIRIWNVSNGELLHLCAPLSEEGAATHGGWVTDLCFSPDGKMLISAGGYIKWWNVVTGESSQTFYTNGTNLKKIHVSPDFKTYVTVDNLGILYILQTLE
Experimental: The specificity of LPT99 was tested in vitro on Apaf-1, caspase 3, and caspase 9 (proteins from the apoptotic cascade), and a broad panel of potential pharmacological targets.
LPT99 inhibited the formation of the apoptosome complex composed by recombinant Apaf-1, Cytc, deoxyadenosine triphosphate (dATP), and caspase 9. This activity was measured as inhibition of caspase 3 activation. […] To evaluate the specificity of the inhibition, an assay of caspase 3 and 9 activation was set up with recombinant proteins. The inhibitions of caspase 3 and 9 were 7.6±14.7 and 5.3±3.5, respectively, for LPT99.

[6] = test system: Chinese hamster ovary (CHO) cell; experiment: in vitro CHO cell aberration assay; assay type: cell-based; settings: presence or absence of S9 metabolism
HEI-OC1 cells [7] = settings: cellular model of CisPt-induced apoptosis; IEB Symposium abstracts 2016; cited from earlier work
[8] = physical stability of drug product vials; assay type: physicochemical; settings: for original drug concentration remaining in solution: filtered through 0.2 micron filters
Experimental: Vials of the drug product were stored at either room temperature or 4° C. for a period greater than three months.

[9] = test system: auditory function (ototoxicity); experiment: non-GLP auditory toxicity after intra-tympanic administration; assay type: in vivo, rat; settings: for ototoxicity: rat

T1 sequence (Q12809 whole entry): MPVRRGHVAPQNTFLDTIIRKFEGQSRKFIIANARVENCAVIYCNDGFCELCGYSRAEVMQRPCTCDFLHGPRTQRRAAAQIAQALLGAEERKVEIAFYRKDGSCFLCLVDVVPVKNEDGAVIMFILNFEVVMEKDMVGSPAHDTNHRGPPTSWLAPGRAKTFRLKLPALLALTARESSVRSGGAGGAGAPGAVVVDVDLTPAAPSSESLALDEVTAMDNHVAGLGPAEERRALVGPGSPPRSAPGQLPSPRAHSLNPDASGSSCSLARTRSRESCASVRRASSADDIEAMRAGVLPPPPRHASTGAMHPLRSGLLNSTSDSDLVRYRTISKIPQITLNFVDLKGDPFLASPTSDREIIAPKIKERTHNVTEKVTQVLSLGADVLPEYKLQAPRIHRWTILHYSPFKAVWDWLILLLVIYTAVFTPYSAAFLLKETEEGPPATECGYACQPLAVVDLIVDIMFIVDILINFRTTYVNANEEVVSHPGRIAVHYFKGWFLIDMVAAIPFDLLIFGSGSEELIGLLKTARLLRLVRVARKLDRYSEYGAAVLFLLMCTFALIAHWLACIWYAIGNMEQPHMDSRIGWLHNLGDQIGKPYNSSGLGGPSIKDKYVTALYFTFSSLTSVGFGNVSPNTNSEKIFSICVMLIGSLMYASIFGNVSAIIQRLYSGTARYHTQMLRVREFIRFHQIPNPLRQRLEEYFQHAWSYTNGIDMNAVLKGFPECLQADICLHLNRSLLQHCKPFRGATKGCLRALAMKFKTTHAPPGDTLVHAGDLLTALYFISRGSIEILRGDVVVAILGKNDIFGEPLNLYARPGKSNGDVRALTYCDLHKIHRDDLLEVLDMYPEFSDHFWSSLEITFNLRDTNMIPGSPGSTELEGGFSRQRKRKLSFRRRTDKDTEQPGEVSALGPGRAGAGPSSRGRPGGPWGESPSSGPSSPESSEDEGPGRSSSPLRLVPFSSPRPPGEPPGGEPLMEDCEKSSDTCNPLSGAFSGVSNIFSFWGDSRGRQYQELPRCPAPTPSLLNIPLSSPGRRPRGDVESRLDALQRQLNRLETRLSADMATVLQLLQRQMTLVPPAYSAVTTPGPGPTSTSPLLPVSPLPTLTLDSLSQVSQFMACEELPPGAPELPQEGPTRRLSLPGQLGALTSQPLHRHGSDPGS

For `COc1ccc2[nH]cc(CCNC(=O)CC3C(=O)N(CCc4ccc(Cl)cc4Cl)CC(=O)N3CCc3cccs3)c2c1` (stereo not drawn) [LPT99, 2-(4-(2,4-dichlorophenethyl)-3,6-dioxo-1-(2-(thiophen-2-yl)ethyl)piperazin-2-yl)-N-(2-(5-methoxy-1H-indol-3-yl)ethyl)acetamide], the “safety margin (hERG IC50 vs plasma detection limit 3.2 nM)” value (hERG) was greater than 1063, the IC50 (hERG; hERG-CHO cells, automated patch clamp) was 3.4 µM and the “cell viability with CisPt” value (HEI-OC1 cells [1]) was “improved cell viability; also recorded: increased cellular viability”. For the same compound, the “number of metabolites formed” value [2] was no more than 9, the caspase-3 activation (caspase 3) was “reduced caspase-3 activation” and the “tolerability of single IT dose” value (rats; rat, 200, 400, or 797 μM, 30 μL per ear) was “generally well tolerated”. For the same compound, the “mass of injected LPT99 at the no observed adverse effect level (NOAEL)” value (rats; rat, IT, 30 μl of 797 μM) was 15 µg, the “auditory brainstem response (hearing loss)” value (rats; rat, in vivo) was “no reliable evidence of test-article-related hearing loss” and the “cytocochleogram (hair cell loss)” value (rats; rat, in vivo) was “no reliable evidence of test-article-related hair cell loss”. The “otoscopic examination of the tympanic membranes (erythema, edema, wounds)” value (rats; rat, in vivo) was “no statistically significant changes in erythema, edema, or wounds”, the “mortalities, clinical abnormalities, body weight, food intake, clinical pathologies” value (rats; rat, single bilateral IT 30 μL per ear, 14-day study) was “no LPT99- or gentamicin-related mortalities” and the “plasma concentration at quantitation limit (3.2 nM) as share of administered dose” value ([3]; 50 μM dose) was 0.006%. For the same compound, the “plasma concentration at quantitation limit (3.2 nM) as share of administered dose” value ([3]; 100 μM dose) was 0.003%, the “plasma concentration at quantitation limit (3.2 nM) as share of administered dose” value ([3]; 200 μM dose) was 0.0016% and the neurological parameters (Sprague-Dawley rats; IP 100 mg/kg, Day 1) was “unaffected”. For the same compound, the motor activity scores (Sprague-Dawley rats; IP 300 and 750 mg/kg, both sexes, day 1, reversible by Day 15) was “lower motor activity scores”, the “plasma LPT99 concentration if IT dose were 100% bioavailable” value [4] was 0.066 µM and the inhibition at 10 µM [5] was 78.9%. For the same compound, the “structural aberrations in cultured mammalian cells” value [6] was “did not induce structural aberrations”, the “release of Cytc from mitochondria” value (HEI-OC1 cells [7]) was “decreased release of Cytc from mitochondria” and the time to precipitation ([8]; vials stored at 4 C) was “approximately 2 months”. For the same compound, the “original drug concentration remaining in solution” value ([8]; vials stored at 4 C) was “less than 10%”, the “original drug concentration remaining in solution” value ([8]; vials stored at room temperature) was 100% and the appearance of solution ([8]; vials stored at room temperature, greater than three months) was “remained clear with no evidence of drug precipitation”. For the same compound, the “ABR thresholds in response to click or pure tones (8 to 40 kHz), latencies and amplitudes” value ([9]; IT, in cyclodextrin, 100 or 200 μM, Day 3) was “did not produce a statistically significant increase in the thresholds”, the ototoxicity ([9]; IT, 100 and 478 μM, follow-up experiment) was “no LPT99 ototoxicity” and the ototoxicity ([9]; IT, 200, 400, and 797 μM) was “no ototoxicity”.

— US10561736B1, “Apoptosis inhibitor formulations for prevention of hearing loss” (Spiral Therapeutics, Inc., priority 2019, dated 2020)
